Results taken from US20260356860A1, “2-SUBSTITUTED 3,4A,5,7,8,8A-HEXAHYDRO-4H-THIOPYRANO[4,3-DJPYRIMIDIN-4-ONES FOR WOUND TREATMENT” (priority 2022, published 2026).

What was measured:
Type in all cases: cell-based
[1] = test system: S. aureus (derived from ATCC ® 6538 ™); assay: Bacteriostasis, log reduction; conditions: S. aureus ATCC 6538
Procedure: (§1) In order to assess the log reduction capabilities of compounds of Formula (1), testing was performed on organisms that are found in acute and chronic wounds. Triplicate tubes were prepared for each bacteria using 50 μL of inoculum (about 1×10^6 CFU/mL) which was added to 450 μL of compound solution (compound of Formula (I)) (or 100 μL of inoculum in 900 μL of compound solution), resulting in a final inoculum of about 1×10^5 CFU/mL, as shown in Table 4.
(§2) Tubes were mixed with a vortex and then incubated in a shaking incubator at 175 RPM and 35° C. to 37° C.
(§3) Positive control in Tables 5a and 5b was 1 mL of 0.89% saline with 1 mL of the 1×10^6 CFU/mL of the organism.
(§4) For Compounds 1, 7, 8, 10, and 18 in Tables 6, 7-A, 7-B, 8, 9, 10-A, 10-B, and 11: The compound solutions were prepared with compound (30 mg), polysorbate 20 (1.6 mL), butylene glycol (1.6 mL), phosphatidyl choline (0.66 g), ethanol (1.6 mL), hydroxypropyl cellulose (0.26 g), and ultra pure water (24.9 mL).
(§5) XAV939 Control in Table X1 was XAV939 (30 mg), polysorbate 20 (1.6 mL), butylene glycol (1.6 mL), phosphatidyl choline (0.66 g), ethanol (1.6 mL), ultra pure water (24.9 mL), and hydroxypropyl cellulose (0.26 g).
(§6) GO-HA Control in Table X2 was GO-HA (30 mg), polysorbate 20 (1.6 mL), butylene glycol (1.6 mL), phosphatidyl choline (0.66 g), ethanol (1.6 mL), ultra pure water (24.9 mL), and hydroxypropyl cellulose (0.26 g).
(§7) For Compound 18+GO-HA in Tables 6 and X4: compound 18 (45 mg), GO-HA (45 mg), polysorbate 20 (2 mL), butylene glycol (2 mL), phosphotidyl choline (0.5 g), ethanol (2 mL), hydroxypropyl cellulose (0.40 g), and ultra pure water (40 mL).
(§8) For XAV939+GO-HA in Tables 6 and X3-A, and X3-B: XAV939 (45 mg), GO-HA (45 mg), butylene glycol (2 mL), polysorbate 20 (2 mL), phosphotidyl choline (0.5 g), ethanol (2 mL), hydroxypropyl cellulose (0.40 g), and ultra pure water (40 mL).
(§9) Testing was performed at two time points: 18 to 24 hours, and […].

[2] = test system: P. vulgaris (derived from ATCC ® 8427 ™); assay: Bacteriostasis, log reduction; conditions: P. vulgaris ATCC 8427
Procedure: as §1, §2, §3, §4, §5, §6, §7, §8, §9

[3] = test system: S. epidermidis (derived from ATCC ® 14990 ™); assay: Bacteriostasis, log reduction; conditions: S. epidermidis ATCC 14990
Procedure: as §1, §2, §3, §4, §5, §6, §7, §8, §9

[4] = test system: S. maltophilia (derived from ATCC ® 13637 ™); assay: Bacteriostasis, log reduction; conditions: S. maltophilia ATCC 13637
Procedure: as §1, §2, §3, §4, §5, §6, §7, §8, §9

[5] = test system: E. coli 0157:H7 (derived from ATCC ® 12900 ™); assay: Bacteriostasis, log reduction; conditions: E. coli 0157:H7 ATCC 12900
Procedure: as §1, §2, §3, §4, §5, §6, §7, §8, §9

[6] = test system: E. coli (derived from ATCC ® 25922 ™); assay: Bacteriostasis, log reduction; conditions: E. coli ATCC 25922
Procedure: as §1, §2, §3, §4, §5, §6, §7, §8, §9

[7] = test system: E. faecalis (derived from ATCC ® 19433 ™); assay: Bacteriostasis, log reduction; conditions: E. faecalis ATCC 19433
Procedure: as §1, §2, §3, §4, §5, §6, §7, §8, §9

[8] = test system: P. aeruginosa (derived from ATCC ® 9027 ™); assay: Bacteriostasis, log reduction; conditions: P. aeruginosa ATCC 9027
Procedure: as §1, §2, §3, §4, §5, §6, §7, §8, §9

[9] = test system: K. pneumoniae (derived from ATCC ® 10031 ™); assay: Bacteriostasis, log reduction; conditions: K. pneumoniae ATCC 10031
Procedure: as §1, §2, §3, §4, §5, §6, §7, §8, §9

[10] = test system: E. coli (derived from ATCC ® 8739 ™); assay: Bacteriostasis, log reduction; conditions: E. coli ATCC 8739
Procedure: as §1, §2, §3, §4, §5, §6, §7, §8, §9

[11] = test system: P. aeruginosa (derived from ATCC ® 15442 ™); assay: Bacteriostasis, log reduction; conditions: P. aeruginosa ATCC 15442
Procedure: as §1, §2, §3, §4, §5, §6, §7, §8, §9

bacteria = assay: Bacteriostasis: growth inhibition over the panel of bacteria; conditions: 72 h
Procedure: as §1, §2, §4, §9

O=c1[nH]c(-c2ccc(-c3ccc(B(O)O)cc3)cc2)nc2c1CSCC2 [Compound 10, (4′-(4-oxo-3,5,7,8-tetrahydro-4H-thiopyrano[4,3-d]pyrimidin-2-yl)-[1,1′-biphenyl]-4-yl)boronic acid]
Average result ([1]; 24 h): 1.5 × 10^5
Log Reduction ([1]; 24 h): 0.1
Log Value ([1]; 24 h): 5.2
Average result ([1]; 72 h): 6.7 × 10^3
Log Reduction ([1]; 72 h): 1.5
Log Value ([1]; 72 h): 3.8
Average result ([2]; 24 h): <200
Log Reduction ([2]; 24 h): >3.6
Log Value ([2]; 24 h): <2.3
Average result ([2]; 72 h): <200
Log Reduction ([2]; 72 h): >3.6
Log Value ([2]; 72 h): <2.3
Average result ([3]; 24 h): 1.1 × 10^4
Log Reduction ([3]; 24 h): 0.8
Log Value ([3]; 24 h): 4.0
Average result ([3]; 72 h): 3.3 × 10^2
Log Reduction ([3]; 72 h): 2.3
Log Value ([3]; 72 h): 2.5
Average result ([4]; 24 h): <200
Log Reduction ([4]; 24 h): >2.8
Log Value ([4]; 24 h): <2.3
Average result ([4]; 72 h): <200
Log Reduction ([4]; 72 h): >2.8
Log Value ([4]; 72 h): <2.3
Average result ([5]; 24 h): <200
Log Reduction ([5]; 24 h): >1.9
Log Value ([5]; 24 h): <2.3
Average result ([5]; 72 h): <200
Log Reduction ([5]; 72 h): >1.9
Log Value ([5]; 72 h): <2.3
Average result ([6]; 24 h): <200
Log Reduction ([6]; 24 h): >3.1
Log Value ([6]; 24 h): <2.3
Average result ([6]; 72 h): <200
Log Reduction ([6]; 72 h): >3.1
Log Value ([6]; 72 h): <2.3
Average result ([7]; 24 h): 2.9 × 10^4
Log Reduction ([7]; 24 h): 0.3
Log Value ([7]; 24 h): 4.5
Average result ([7]; 72 h): <200
Log Reduction ([7]; 72 h): >2.5
Log Value ([7]; 72 h): <2.3
Average result ([8]; 24 h): <200
Log Reduction ([8]; 24 h): >3.0
Log Value ([8]; 24 h): <2.3
Average result ([8]; 72 h): <200
Log Reduction ([8]; 72 h): >3.0
Log Value ([8]; 72 h): <2.3
Average result ([9]; 24 h): <200
Log Reduction ([9]; 24 h): >2.5
Log Value ([9]; 24 h): <2.3
Average result ([9]; 72 h): <200
Log Reduction ([9]; 72 h): >2.5
Log Value ([9]; 72 h): <2.3
Average result ([10]; 24 h): <200
Log Reduction ([10]; 24 h): >3.2
Log Value ([10]; 24 h): <2.1
Average result ([10]; 72 h): 6.0 × 10^2
Log Reduction ([10]; 72 h): 2.5
Log Value ([10]; 72 h): 2.8
Average result ([11]; 24 h): <200
Log Reduction ([11]; 24 h): >3.1
Log Value ([11]; 24 h): <2.3
Average result ([11]; 72 h): <200
Log Reduction ([11]; 72 h): >3.1
Log Value ([11]; 72 h): <2.3
number of bacteria with inhibited growth (bacteria; test 1): 7 of 7
number of bacteria with inhibited growth (bacteria; test 2): 7 of 7
